“And” between values parts separate entries of the source, which are not always exact repeats. Identical values can stand only once.
Legend:
[1] = Determination of the Maximum Tolerated Dose (MTD), acute toxicity after a single IP injection; type: in vivo, male OF1 mice; set-up: key to Clinical State Score (CSS) diarrhoea / Clinical State Score (CSS) rough coat / Clinical State Score (CSS) closed eyes / Clinical State Score (CSS) lethargy / Clinical State Score (CSS) total: per mouse 0 = absent, 1 = present per sign; summed over group; settings: for dosage inducing high side effects (mainly diarrhoea): as early as Day 1 after IP administration; for MTD at 2 weeks: male, OF1, mouse, in vivo, zero deaths, maximal weight loss 15 % at Day 1, CSS as low as possible; for MTD at 2 weeks / doses inducing 100% mortality: single IP administration; for Clinical State Score (CSS) closed eyes / Clinical State Score (CSS) diarrhoea / Clinical State Score (CSS) lethargy / Clinical State Score (CSS) rough coat / Clinical State Score (CSS) total: group sum; for Number of deaths (day): non-tumour bearing mice
Procedure: (§1) Drugs were dissolved in a mixture of dimethylacetamide (Sigma) and oleic macrogolglycerides (Labrafil® M1944Cs, Gattefossé) (10:90%, vol/vol).
Initially, the Maximum Tolerated Dose (MTD) after intraperitoneal (IP) administration was determinated.
For MTD determination, study was conducted on male OF1 mice weighing about 30 g, 6-weeks old (Charles River, France). Groups of five to six mice received a single IP injection of each drug at variable doses according to the compound (see Tables 2, 3 and 4).
Individual dose were based on the body weight of each mouse. All the mice received a constant injection volume of 250 µL per 25 g of body weight. A group of seven control mice received the vehicle.
After IP injection, mice were weighed and observed every two days over a 2 week-period to evaluate general clinical state. For each animal, a clinical state score (CSS) was calculated based on the absence (value 0) or presence (value 1) of diarrhoea, lethargy, rough coat and closed eyes. CSS was then calculated per group by summing individual scores. Loss of weight and mortality were also recorded.

CT-26 colon carcinoma = assay: Antitumour activity in CT-26 colon carcinoma bearing mice, IP chemotherapy protocol; type: in vivo, BALB/c male mice; settings: for tumour growth inhibition (CTW time-course): CT26 carcinoma, vs non-treated and vehicle-treated groups, p< 0.05; for LCK / Antitumour Efficacy / Survival Mt/Mc / Weight loss (% max) / antitumour activity according to the NCI criteria decisions: CT26 colon carcinoma; for antitumour activity according to the NCI criteria decisions: in words; for Life span of the animals: CT-26 colon carcinoma-bearing mice
Procedure: as §1
It is performed in tumour-bearing mice following an IP chemotherapy protocol.
To establish CT-26 colon carcinoma model, 2.5 x 10^5 CT26 cells (Dr Iaiaih J.Filder of MDAnderson Cancer Center, University of Texas; in vitro doubling time of 20 hours) were suspended in 100 µL of phosphate buffer solution and injected into the subcutaneous tissue of the right flank of BALB/c male mice, 6-weeks-old (Charles River, France) on day zero.
For both molecules and both animal models, treatment was initiated eight days post tumour grafting, when the tumours had reached a measurable size, corresponding to a calculated tumour weight (CTW) of 40 and 70 mg for B16 and CT-26 models respectively.
Animals were then randomly divided in both treatment and control groups. […] Two dosages have been evaluated, MTD and 0.75 MTD
Mice were weighed and observed every two days over a 30-day -period to evaluate general clinical state. Length and width of tumours were measured every two days over a 30-day-period using a dedicated slide calliper.
The Calculated Tumour Weight (CTW) of each tumour was determined according to the formula: CTW(mg) = L × 1^2 /2 [formula] with L = length in mm and 1= width in mm.
Considering physiopathological features of the CT26 colon carcinoma model, mainly cachexy, drugs 21a and 40a, were assessed at the lowest dosage, i.e. 0.75 MTD administered at Day 8, Day 12, Day 16.
The reference treatment chlorambucil was given at the MTD dosage according to the same schedule.
For subcutaneously growing tumours, antitumour activity is often assessed by using the log10 cell kill (LCK) which is calculated from the following formula: LCK = T-C value in days/3.32 × Td [formula] T is the median time (in days) required for the treatment group tumours to reach a predetermined CTW (e.g. 1000 mg). C is the median time (in days) required for the control group tumours to reach the same CTW. Td is the tumour volume doubling time (in days) estimated from the best fit straight line from a log-linear growth plot of the control group tumours in exponential growth.
An increase in life span was defined by the ratio of the median survival of drug-treated mice (Mt) versus controls (Mc): a survival Mt/Mc equal or higher than 125 % was sought
Mean weight loss of the group was used to evaluate treatment side effects. A mean body weight loss of greater 20% was considered to indicate an excessively toxic dosage.

[2] = 0,75 MTD IP at Day 8, 12 and 16

SMILES: CC(=O)OC[C@H]1O[C@@H](NC(=O)CNC(=O)CCCc2ccc(N(CCCl)CCCl)cc2)[C@H](F)[C@@H](OC(C)=O)[C@@H]1OC(C)=O [Compound 21a, N-[2-(3,4,6-tri-O-acetyl-2-deoxy-2-fluoro-β-D-glucopyranosylamino)-2-oxoethyl]-4-{4-[bis(2-chloroethyl)amino]phenyl}butanamide]
- dosage inducing high side effects (mainly diarrhoea) [1]: ≥ 0.14 mmol/kg
- MTD at 2 weeks [1]: 140 µmol/kg
- Weight loss at day 1 ([1]; single IP 0.07 mmol/kg): 5.6%
- Clinical State Score (CSS) closed eyes ([1]; single IP 0.07 mmol/kg): 0
- Clinical State Score (CSS) diarrhoea ([1]; single IP 0.07 mmol/kg): 1
- Clinical State Score (CSS) lethargy ([1]; single IP 0.07 mmol/kg): 0
- Clinical State Score (CSS) rough coat ([1]; single IP 0.07 mmol/kg): 0
- Clinical State Score (CSS) total ([1]; single IP 0.07 mmol/kg): 1
- Number of deaths (day) ([1]; single IP 0.07 mmol/kg): 0
- Weight loss at day 1 ([1]; single IP 0.14 mmol/kg): 8.4%
- Clinical State Score (CSS) closed eyes ([1]; single IP 0.14 mmol/kg): 0
- Clinical State Score (CSS) diarrhoea ([1]; single IP 0.14 mmol/kg): 4
- Clinical State Score (CSS) lethargy ([1]; single IP 0.14 mmol/kg): 0
- Clinical State Score (CSS) rough coat ([1]; single IP 0.14 mmol/kg): 0
- Clinical State Score (CSS) total ([1]; single IP 0.14 mmol/kg): 4
- Number of deaths (day) ([1]; single IP 0.14 mmol/kg): 0
- Weight loss at day 1 ([1]; single IP 0.18 mmol/kg): 10.4%
- Clinical State Score (CSS) closed eyes ([1]; single IP 0.18 mmol/kg): 0
- Clinical State Score (CSS) diarrhoea ([1]; single IP 0.18 mmol/kg): 4
- Clinical State Score (CSS) lethargy ([1]; single IP 0.18 mmol/kg): 0
- Clinical State Score (CSS) rough coat ([1]; single IP 0.18 mmol/kg): 4
- Clinical State Score (CSS) total ([1]; single IP 0.18 mmol/kg): 8
- Number of deaths (day) ([1]; single IP 0.18 mmol/kg): 1
- Weight loss at day 1 ([1]; single IP 0.21 mmol/kg): 9.7%
- Clinical State Score (CSS) closed eyes ([1]; single IP 0.21 mmol/kg): 0
- Clinical State Score (CSS) diarrhoea ([1]; single IP 0.21 mmol/kg): 1
- Clinical State Score (CSS) lethargy ([1]; single IP 0.21 mmol/kg): 2
- Clinical State Score (CSS) rough coat ([1]; single IP 0.21 mmol/kg): 4
- Clinical State Score (CSS) total ([1]; single IP 0.21 mmol/kg): 7
- Number of deaths (day) ([1]; single IP 0.21 mmol/kg): 1 (D1)
- Number of deaths (day) ([1]; single IP 0.28 mmol/kg): 4 (D1)
- Number of deaths (day) ([1]; single IP 0.56 mmol/kg): 4 (D1)
- Number of deaths (day) ([1]; single IP 0.76 mmol/kg): 5 (D1)
- doses inducing 100% mortality [1]: 0.76 mmol/kg
- tumour growth inhibition (CTW time-course) (CT-26 colon carcinoma; [2]): significant tumour growth inhibition
- LCK (CT-26 colon carcinoma; dosage not stated): around 1.1
- Antitumour Efficacy (CT-26 colon carcinoma; 75% MTD, IP D8, D12, D16): + (0.7 < LCK < 1.2 active drug (+))
- LCK (CT-26 colon carcinoma; 75% MTD, IP D8, D12, D16): 1.10
- Survival Mt/Mc (CT-26 colon carcinoma; 75% MTD, IP D8, D12, D16): 1.5
- Weight loss (% max) (CT-26 colon carcinoma; 75% MTD, IP D8, D12, D16): 17.1%
- antitumour activity according to the NCI criteria decisions (CT-26 colon carcinoma): active
- Life span of the animals (CT-26 colon carcinoma): increased

SMILES: CC(=O)OC[C@H]1O[C@@H](Oc2ccc(NC(=O)CNC(=O)CCCc3ccc(N(CCCl)CCCl)cc3)cc2)[C@H](F)[C@@H](OC(C)=O)[C@@H]1OC(C)=O [Compound 40a, N-{2-[4-(3,4,6-tri-O-acetyl-2-deoxy-2-fluoro-β-D-glucopyranosyloxy)phenyl]amino-2-oxoethyl}-4-{4-[bis(2-chloroethyl)amino]phenyl}butanamide]
- dosage inducing high side effects (mainly diarrhoea) [1]: ≥ 0.07 mmol/kg
- MTD at 2 weeks [1]: 140 µmol/kg
- Weight loss at day 1 ([1]; single IP 0.07 mmol/kg): 6.3%
- Clinical State Score (CSS) closed eyes ([1]; single IP 0.07 mmol/kg): 0
- Clinical State Score (CSS) diarrhoea ([1]; single IP 0.07 mmol/kg): 2
- Clinical State Score (CSS) lethargy ([1]; single IP 0.07 mmol/kg): 0
- Clinical State Score (CSS) rough coat ([1]; single IP 0.07 mmol/kg): 0
- Clinical State Score (CSS) total ([1]; single IP 0.07 mmol/kg): 2
- Number of deaths (day) ([1]; single IP 0.07 mmol/kg): 0
- Weight loss at day 1 ([1]; single IP 0.14 mmol/kg): 14.9%
- Clinical State Score (CSS) closed eyes ([1]; single IP 0.14 mmol/kg): 0
- Clinical State Score (CSS) diarrhoea ([1]; single IP 0.14 mmol/kg): 2
- Clinical State Score (CSS) lethargy ([1]; single IP 0.14 mmol/kg): 0
- Clinical State Score (CSS) rough coat ([1]; single IP 0.14 mmol/kg): 0
- Clinical State Score (CSS) total ([1]; single IP 0.14 mmol/kg): 2
- Number of deaths (day) ([1]; single IP 0.14 mmol/kg): 0
- Weight loss at day 1 ([1]; single IP 0.18 mmol/kg): 8.2%
- Clinical State Score (CSS) closed eyes ([1]; single IP 0.18 mmol/kg): 0
- Clinical State Score (CSS) diarrhoea ([1]; single IP 0.18 mmol/kg): 3
- Clinical State Score (CSS) lethargy ([1]; single IP 0.18 mmol/kg): 0
- Clinical State Score (CSS) rough coat ([1]; single IP 0.18 mmol/kg): 3
- Clinical State Score (CSS) total ([1]; single IP 0.18 mmol/kg): 6
- Number of deaths (day) ([1]; single IP 0.18 mmol/kg): 2
- Number of deaths (day) ([1]; single IP 0.21 mmol/kg): 3 (D6)
- Weight loss at day 1 ([1]; single IP 0.28 mmol/kg): 18.3%
- Clinical State Score (CSS) closed eyes ([1]; single IP 0.28 mmol/kg): 2
- Clinical State Score (CSS) diarrhoea ([1]; single IP 0.28 mmol/kg): 4
- Clinical State Score (CSS) lethargy ([1]; single IP 0.28 mmol/kg): 2
- Clinical State Score (CSS) rough coat ([1]; single IP 0.28 mmol/kg): 0
- Clinical State Score (CSS) total ([1]; single IP 0.28 mmol/kg): 8
- Number of deaths (day) ([1]; single IP 0.28 mmol/kg): 2 (D1)
- Number of deaths (day) ([1]; single IP 0.42 mmol/kg): 3(D6)
- Number of deaths (day) ([1]; single IP 0.56 mmol/kg): 5(D6,7,9,13,15)
- doses inducing 100% mortality [1]: 0.56 mmol/kg
- tumour growth inhibition (CTW time-course) (CT-26 colon carcinoma; [2]): significant tumour growth inhibition
- LCK (CT-26 colon carcinoma; dosage not stated): around 1.5
- Antitumour Efficacy (CT-26 colon carcinoma; 75% MTD, IP D8, D12, D16): ++ (1.7 < LCK < 1.9 highly active drug (++))
- LCK (CT-26 colon carcinoma; 75% MTD, IP D8, D12, D16): 1.52
- Survival Mt/Mc (CT-26 colon carcinoma; 75% MTD, IP D8, D12, D16): 1.29
- Weight loss (% max) (CT-26 colon carcinoma; 75% MTD, IP D8, D12, D16): 21% and 21.5%
- antitumour activity according to the NCI criteria decisions (CT-26 colon carcinoma): highly active
- Life span of the animals (CT-26 colon carcinoma): increased

SMILES: O=C(O)CCCc1ccc(N(CCCl)CCCl)cc1 [chlorambucil, reference compound]
- dosage inducing high side effects (mainly diarrhoea) [1]: ≥ 0.0175 mmol/kg
- MTD at 2 weeks [1]: 50 µmol/kg
- Weight loss at day 1 ([1]; single IP 0.0175 mmol/kg): 1.4%
- Number of deaths (day) ([1]; single IP 0.0175 mmol/kg): 0
- Weight loss at day 1 ([1]; single IP 0.035 mmol/kg): 6.1%
- Number of deaths (day) ([1]; single IP 0.035 mmol/kg): 0
- Weight loss at day 1 ([1]; single IP 0.05 mmol/kg): 12.9%
- Number of deaths (day) ([1]; single IP 0.05 mmol/kg): 0
- Weight loss at day 1 ([1]; single IP 0.07 mmol/kg): 13.1%
- Number of deaths (day) ([1]; single IP 0.07 mmol/kg): 0
- Weight loss at day 1 ([1]; single IP 0.09 mmol/kg): 26%
- Number of deaths (day) ([1]; single IP 0.09 mmol/kg): 1 (D1)
- Number of deaths (day) ([1]; single IP 0.14 mmol/kg): 4 (D1)
- doses inducing 100% mortality [1]: 0.14 mmol/kg
- tumour growth inhibition (CTW time-course) (CT-26 colon carcinoma; MTD dosage, same schedule): significant tumour growth inhibition
- LCK (CT-26 colon carcinoma; dosage not stated): 0.79
- LCK (CT-26 colon carcinoma; MTD, IP D8, D12, D16): 0.79
- Survival Mt/Mc (CT-26 colon carcinoma; MTD, IP D8, D12, D16): 0.74
- Weight loss (% max) (CT-26 colon carcinoma; MTD, IP D8, D12, D16): 13.9%
- antitumour activity according to the NCI criteria decisions (CT-26 colon carcinoma): discrete antitumour activity
- antitumour activity according to the NCI criteria decisions (CT-26 colon carcinoma; listed as Chlorambucil): failed in exhibiting any antitumour activity
- Life span of the animals (CT-26 colon carcinoma): not

From patent publication EP1881000A1, “Conjugates of 2-fluoro-2-deoxy-glucose and their uses as anti cancer agents” (INSTITUT NATIONAL DE LA SANTE ET DE LA RECHERCHE MEDICALE …, priority 2006, dated 2008)
